# In patent publication US10888500B2, “Particle size stabilization process” (INKE, S.A., priority 2016, dated 2021):
# Tests used:
# [1] = between pH 1 and 14; cited from earlier work
# [2] = for D50 determined by LDS after curing / D90 determined by LDS after curing: after curing at 130° C., storage at 25° C. for (at least) 1 month
# Experimental: Laser Diffraction Spectrometry (LDS) was used to determine the Particle Size Distribution (PSD) and the determination of the presence of aggregates.
# Particle Size Distribution ([…]).
# The particle size distribution of sample was measured by using a Helos particle size analyser using a R1 lense with an Aspiros feeder using a dispersing dry process on 50 mg of glycopyrronium salt product.
# (§1) Determination of Presence of Aggregates (MALVERN).
# The presence of aggregates in a sample was determined by using a Malvern Mastersizer 2000 instrument. For example: 100 mg of glycopyrronium salt were mixed with 5 ml of a previously prepared saturated solution of glycopyrronium salt in n-heptane containing 0.2 wt. % of Span-20. Ultrasonic treatment of the samples was performed for 2 minutes.
# [3] = Amorphous content by Dynamic Vapor Sorption Analysis (DVS), water uptake method; format: physicochemical; conditions: after the curing step
# Experimental: Dynamic Vapor Sorption Analysis (DVS):
# The experiments were performed in a Mettler Toledo TGA/DSC 1 LF instrument equipped with a LF SDTA FRS2 sensor and coupled with a Modular Humidity Generator MHG 32. The samples were weighted into 150 μL platinum crucibles. Data collection and evaluation was done with STARe software. A water uptake method was used to determine the amorphous content. In this method, the relative mass difference at a specific relative humidity (20%) prior to and post humidity-induced crystallization was compared. Assuming no solvate or hydrate formation, the difference in uptake between partially amorphous and recrystallized material is directly proportional to the initial amount of amorphous material in the sample. A purely amorphous sample (reference sample) was used as amorphous standard. The water uptake of a sample is proportional to the amount of amorphous content present in the sample.
# [4] = Determination of presence of aggregates / agglomerated material (Malvern); format: physicochemical; conditions: after the curing step
# Text: as §1
# [5] = after curing at 70° C., vacuum, 6 hours, FIG. 1: after storage at 25° C. for 1 month
Molecule,ionization [1],"D50 after the curing step (agglomerated material, FIG. 1) [2, 5] [μm]","D90 after the curing step (agglomerated material, FIG. 1) [2, 5] [μm]",amorphous content as determined by DVS [3] [wt. %],agglomerated material observed [4],D50 determined by LDS after curing [2] [μm],D90 determined by LDS after curing [2] [μm],amorphous content as determined by DVS (in words) [3]
"C[N+]1(C)CC[C@@H](OC(=O)[C@@](O)(c2ccccc2)C2CCCC2)C1 (racemic) [Glycopyrronium bromide, (3RS)-3-[(2SR)-(2-cyclopentyl-2-hydroxy-2-phenylacetyl)oxy]-1,1-dimethylpyrrolidinium bromide]",completely ionized,,,,,,,
"glycopyrronium bromide [Example 1, reference compound]",,60.27,888.59,1.8,significant amount of agglomerated material,,,
glycopyrronium bromide [Example 2],,,,,no agglomerated material was observed,1.45,3.39,No amorphous content was detected
glycopyrronium bromide [Example 3],,,,,no agglomerated material was observed,1.46,3.36,No amorphous content was detected
glycopyrronium bromide [Example 4],,,,,no agglomerated material was observed,1.45,3.26,No amorphous content was detected
glycopyrronium bromide [Example 5],,,,,no agglomerated material was observed,1.43,3.28,No amorphous content was detected
glycopyrronium bromide [Example 6],,,,,no agglomerated material was observed,1.48,3.11,No amorphous content was detected
